From patent US20210349097A1, “BIOMARKERS FOR A COMBINATION THERAPY COMPRISING LENVATINIB AND EVEROLIMUS” (Eisai R&D Management Co., Ltd., priority 2018, published 2021)

Experiments:
Type in all cases: in vivo, human
[1] = test system: metastatic renal cell carcinoma (RCC); assay: Phase 2 study in metastatic RCC after prior VEGF-targeted therapy: progression free survival (PFS) by baseline serum biomarker / composite biomarker score
Protocol: (§1) A Phase 2 study for lenvatinib was performed in patients with metastatic renal cell carcinoma (RCC) following a VEGF-targeted therapy. Patients having metastatic renal cell carcinoma after a prior VEGF-targeted therapy received lenvatinib mesylate (“lenvatinib”), everolimus, or the combination thereof until disease progression or development of unmanageable toxicities. A total of 153 subjects were randomized into 3 treatment arms to receive:
(§2) 1) 18 mg/day lenvatinib (as lenvatinib free base; the same shall apply hereinafter)+5 mg/day everolimus (Arm A [LEN/EVE treatment arm], N=51),
(§3) 2) lenvatinib 24 mg/day (Arm B [LEN treatment arm], N=52), or
(§4) 3) everolimus 10 mg/day (Arm C [EVE treatment arm], N=50).
(§5) Each Cycle consisted of 4 weeks (28 days)
(§6) Blood samples for biomarker assessments were collected from subjects in all 3 treatment arms (LEN/EVE, N=49; LEN, N=51; EVE, N=47; Total, N=147) at Cycle 1 Day 1(pre-treatment). In samples from 145 subjects (94.8% of all Intention to Treat [ITT] population; LEN/EVE, N=49; LEN, N=50; EVE, N=46), 40 candidate biomarkers shown in Table 1 were assayed using 19 preconfigured CustomMAP immunoassay panels and measured by a multiplex flow cytometry-based platform by the manufacturer (Multi-Analyte Profile (MAP)) at a Myriad RBM (Austin, Tex., USA).
(§7) For baseline levels of each serum biomarker, correlation analyses with PFS were performed using univariate Cox regression in each of the 3 arms. Hazard ratio (HR) for biomarkers with continuous values was calculated as a ratio of hazards between measured values with one standard deviation (HR per standard deviation). Baseline serum IL-18BP levels were associated with PFS in the LEN/EVE arm (Table 2). In the following tables, FDR refers to False Discovery Rate, MST refers to Median Survival Time and CI refers to Confidence Interval.
For IL-18BP, dichotomized analysis was performed to correlate baseline serum biomarker levels in subjects with low and high levels with PFS in the 3 arms. The cutoff points were median, first tertile, second tertile, first quartile or third quartile. Association between the groups and PFS was explored using univariate Cox regression and the log-rank test with each of the selected cutoff points. At the second tertile cutoff point, median PFS for the high IL-18BP group (5.6 months) was shorter than that for the low group (17.5 months) in the LEN/EVE arm (Table 3).
(§8) For each biomarker integrated into the CBS, a value of 1 was assigned if the respective baseline biomarker level fell within the range determined to associate with longer survival in the single biomarker cutoff analysis; a value of 0 was assigned if the respective baseline biomarker level was categorized in the range associated with shorter survival. The sum of the individual values (0 vs. 1 for each of the 5 biomarkers) was computed as a CBS for each subject (range 0-5). Patients were then dichotomized per CBS as low and high groups (0 vs. 1-5, 0-1 vs. 2-5, 0-2 vs. 3-5, 0-3 vs. 4-5, and 0-4 vs. 5). Associations between the groups and PFS were explored using univariate Cox regression and the log-rank test with each of the selected dichotomization points in each treatment arm. Interaction P values were estimated by multivariate Cox regression analysis with treatment arm, baseline level and PFS. Associations between the groups and objective response rate (ORR) were also explored using Fisher's exact test.
(§9) For each biomarker integrated into the CBS, a value of 1 was assigned if the respective baseline biomarker level fell within the range determined to associate with longer survival in the single biomarker cutoff analysis; a value of 0 was assigned if the respective baseline biomarker level was categorized in the range associated with shorter survival. The sum of the individual values (0 vs. 1 for each of the 2 biomarkers) was computed as a CBS for each subject (range 0-2). […]

[2] = test system: metastatic renal cell carcinoma (RCC); assay: Phase 2 study in metastatic RCC after prior VEGF-targeted therapy: overall survival (OS) by baseline serum biomarker / composite biomarker score
Protocol: as §1, §2, §3, §4, §5, §6
as §7, with “OS” for “PFS”, “FGF-21, ICAM-1, and M-CSF” for “IL-18BP”, “4).” for “2). In the following tables, FDR refers to False Discovery Rate, MST refers to Median Survival Time and CI refers to Confidence Interval.”
For FGF-21, ICAM-1, and M-CSF, dichotomized analyses were performed to correlate baseline serum biomarker levels in subjects with low and high levels with OS in the 3 arms using univariate Cox regression and the log-rank test at median cutoff point. Low baseline levels of FGF-21, ICAM-1, and M-CSF were associated with longer OS in the LEN/EVE arm (Table 5).
as §8, with “the range previously determined to” for “the range determined to”, “longer survival on single biomarker” for “longer survival in the single biomarker”, “subject (range 0-5; high=favorable survival). Patients were” for “subject (range 0-5). Patients were”, “groups and OS were explored” for “groups and PFS were explored”, “level and OS. Associations between” for “level and PFS. Associations between”
as §8, with “2” for “5”, “0-2).” for “0-5).”, “1-2 and” for “1-5,”, “2).” for “2-5, 0-2 vs. 3-5, 0-3 vs. 4-5, and 0-4 vs. 5).”, “OS” for “PFS”, “Interaction P values were estimated by multivariate Cox regression analysis with treatment arm, baseline level and PFS. Associations between the groups and objective response rate (ORR) were also explored using Fisher's exact test.” left out

[3] = test system: metastatic renal cell carcinoma (RCC); assay: Phase 2 study in metastatic RCC after prior VEGF-targeted therapy: objective response rate (ORR) by composite biomarker score
Protocol: as §1, §2, §3, §4, §5, §6, §8
as §8, with “the range previously determined to” for “the range determined to”, “longer survival on single biomarker” for “longer survival in the single biomarker”, “subject (range 0-5; high=favorable survival). Patients were” for “subject (range 0-5). Patients were”, “groups and OS were explored” for “groups and PFS were explored”, “level and OS. Associations between” for “level and PFS. Associations between”
as §9

[4] = 5-marker CBS (HGF, MIG, IL-18BP, IL-18, ANG-2)
[5] = 5-marker CBS (TIMP-1, M-CSF, IL-18BP, ANG-2, VEGF-A)

## CO[C@H]1C[C@@H]2CC[C@@H](C)[C@@](O)(O2)C(=O)C(=O)N2CCCC[C@H]2C(=O)O[C@H]([C@H](C)C[C@@H]2CC[C@@H](OCCO)[C@H](OC)C2)CC(=O)[C@H](C)/C=C(\C)[C@@H](O)[C@@H](OC)C(=O)[C@H](C)C[C@H](C)/C=C/C=C/C=C/1C [EVE, (1R,9S,12S,15R,16E,18R,19R,21R,23S,24E,26E,28E,30S,32S,35R)-1,18-dihydroxy-12-{(1R)-2-[(1S,3R,4R)-4-(2-hydroxyethoxy)-3-methoxycyclohexyl]-1-methylethyl}-19,30-dimethoxy-15,17,21,23,29,35-hexamethyl-11,36-dioxa-4-aza-tricyclo[30.3.1.0^4,9]hexatriaconta-16,24,26,28-tetraene-2,3,10,14,20-pentaone]
[1]; 2-marker CBS (IL-18BP, ANG-2)
  mPFS, CBS High (1-2): 5.5 mo
  mPFS, CBS Low (0): 3.0 mo
  mPFS, high CBS score (1-2): 5.5 months
[1]; [4]
  mPFS, CBS High (3-5): 3.6 mo
  mPFS, CBS Low (0-2): 5.5 mo
  mPFS, high CBS score (3-5): 3.6 months
[1]; baseline serum IL-18BP high, cutoff quantile 0.67 (second tertile)
  MST (median PFS), IL-18BP High Group: 3.5 months
[1]; baseline serum IL-18BP low, cutoff quantile 0.67 (second tertile)
  MST (median PFS), IL-18BP Low Group: 5.5 months
[1]; cutoff quantile 0.67 (second tertile), univariate Cox regression
  HR (95% CI) PFS, IL-18BP low and high groups: 1.194
[1]; univariate Cox regression, HR per standard deviation of baseline serum IL-18BP
  HR (95% CI), baseline IL-18BP with PFS: 1.207
[2]; 2-marker CBS (IL-18BP, ANG-2)
  HR OS, high CBS (1-2) vs low CBS (0) within arm: 0.461
  mOS, CBS High (1-2): 17.5 mo
  mOS, CBS Low (0): 11.4 mo
  mOS, high CBS score (1-2): 17.5 months
  mOS, low CBS score (0): 11.4 months
[2]; [5]
  mOS, CBS High (3-5): 17.4 mo
  mOS, CBS Low (0-2): 15.0 mo
  mOS, high CBS score (3-5): 17.4 months
[2]; baseline FGF-21 high, cutoff quantile 0.5 (median)
  MST (median OS), FGF-21 High: 19.5
[2]; baseline FGF-21 low, cutoff quantile 0.5 (median)
  MST (median OS), FGF-21 Low: 15.3
[2]; baseline ICAM-1 high, cutoff quantile 0.5 (median)
  MST (median OS), ICAM-1 High: 18.5
[2]; baseline ICAM-1 low, cutoff quantile 0.5 (median)
  MST (median OS), ICAM-1 Low: 13.3
[2]; baseline M-CSF high, cutoff quantile 0.5 (median)
  MST (median OS), M-CSF High: 15.4
[2]; baseline M-CSF low, cutoff quantile 0.5 (median)
  MST (median OS), M-CSF Low: 17.2
[2]; cutoff quantile 0.5 (median)
  HR (95% CI) OS, FGF-21 low and high groups: 0.741
  HR (95% CI) OS, ICAM-1 low and high groups: 0.66
  HR (95% CI) OS, M-CSF low and high groups: 1.146
[2]; univariate Cox regression, HR per standard deviation of baseline serum FGF-21
  HR (95% CI), baseline FGF-21 with OS: 0.996
[2]; univariate Cox regression, HR per standard deviation of baseline serum ICAM-1
  HR (95% CI), baseline ICAM-1 with OS: 1.017
[2]; univariate Cox regression, HR per standard deviation of baseline serum M-CSF
  HR (95% CI), baseline M-CSF with OS: 1.366
[3]; 2-marker CBS (IL-18BP, ANG-2)
  ORR, CBS High (1-2): 6.9%
  ORR, CBS Low (0): 0.0%
[3]; [4]
  ORR, CBS High (3-5): 5.0%
  ORR, CBS Low (0-2): 4.2%
[3]; [5]
  ORR, CBS High (3-5): 5.3%
  ORR, CBS Low (0-2): 4.0%
